Each structure is given as a SMILES string.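 Interpolation was linear, between the two tested concentrations surrounding the appropriate level; five concentrations were tested over 48 hours in 96-well plates. TGI marks complete inhibition of growth.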

Data on six compounds can be found in PubChem BioAssay (NCI).

What all share (assay): NCI tumour cell line growth inhibition, 48 h
Assay [1] deals with CAKI-1 renal.
Assay [2] deals with DMS 114 small cell lung.
Assay [3] has as its system LXFL 529 NSCLC.
Assay [4] concerns RXF-631 renal.
Assay [5] relates to UACC-257 melanoma.
The test system of assay [6] is MDA-N.
Assay [7] concerns NCI/ADR-RES ovarian.
Assay [8] relates to HOP-18 NSCLC.
In assay [9] the test system is P388 leukemia.
The test system of assay [10] is P388/ADR leukemia.
For assay [11], the system named is SN12K1 renal.

`O=c1cc2cc(O)[nH]c(=O)c2c(O)[nH]1`: the TGI in [1], in [2], in assay [3], in assay [4] and in assay [5] was over 100 µM in each case.

As for `CC(C)(C)c1cc(C2NC(=O)NC2=O)cc(C(C)(C)C)c1O` (centres undefined), the TGI in assay [1], in assay [6] and in assay [7] was over 100 µM throughout.

Take `COc1cc(-c2coc3c(OC)c(OC4OC(COC5OC(C)C(O)C(O)C5O)C(O)C(O)C4O)c(OC)c(O)c3c2=O)cc(C)c1O` (centres undefined): the TGI in [1] was found to be 38.9 µM; in assay [7], 52.5 µM; in assay [5], 68.2 µM.

In the case of `Cc1[nH]c(=O)[nH]c(=O)c1C(=O)N(CCO)Cc1ccccc1`, the TGI in [6] and in assay [5] was over 100 µM throughout.

Turning to `CCCN1C(=O)/C(=C(/O)C(=O)OCC)C(c2ccc(OC)c(OC)c2)C1=O` (centres undefined), the TGI in assay [1], in assay [2], in [8], in assay [7], in assay [9] and in assay [10] was over 100 µM in each case. The TGI in [11] and in assay [5] was over 100 µM throughout.

For the compound `CC(=O)OC1C(O)C(C)OC(OC(=O)C2CCC3C(C2)OC2(CC(OC(=O)/C=C/c4ccccc4)C(C)CO2)C32CO2)C1OC1OC(C)C(O)C(O)C1O` (centres undefined), the TGI in assay [1] stood at 9.74 µM; in assay [2], 0.0563 µM; in [8] it was 0.585 µM; in assay [7], 146 µM; in assay [9] it was 1.39 µM; in assay [10], 113 µM. Besides, the TGI is 0.0828 µM in [11] and 0.0726 µM in assay [5].
